Test results as given in publication PMC12643354, “From Oxygen to Tellurium: The Impact of the Chalcogen on Nucleophilicities and Basicities of Isochalcogenourea Catalysts” (Angewandte Chemie (International Ed. in English), 2025).
Marks after values point to notes of the source that are not given here.

What was measured:
[1] = Brønsted basicity pKaH by chemical shift imaging NMR method in DMSO and MeCN; conditions: for Brønsted basicity pKaH(DMSO): in DMSO; for Brønsted basicity pKaH(MeCN): in MeCN
Protocol: Recently, Wiskur's group reported potentiometrically determined pK aH values (that is, the pK a of the conjugate acids) of achiral ITUs based on the BTM and DHPB scaffolds in aqueous media.^[ [89], [128] ^] […] In this work, we applied this NMR spectroscopic method to determine the pK aH values of further IChUs in DMSO and MeCN (Supporting Information).
First, a stock solution containing the analyte, two basic indicators and tetramethyl silane was prepared with the respective solvent (DMSO or acetonitrile).
Then 5-10 mg of acid were weighed into a NMR tube and subsequently covered with glass beads.
Figure S50: 5-10 mg of acid in Figure S51: Cover with 1 mm
Afterwards, 550 μL of the stock solution was layered carefully over the glass beads and the acid. The sample is then put in a 28 °C water bath (for DMSO) for 20 - 24h or left on the bench at 22 °C (for acetonitrile) for 1.5 - 2 h and then the NMR measurement was carried out at 20 °C.
Figure S52: Overlay the acid with the Figure S54: Visualized gradient after stock solution of two indicators and the 18h in DMSO (with Bromthymolblue) […]
Figure S53: Development of gradients in temperated water S145 […]
13.4 Indicator and Acid Data
Table S67: Limiting shifts (δH for the fully protonated and δL for the free base), pKas and abbreviations of indicators and acids in acetonitrile.
Table S68: Limiting shifts (δH for the fully protonated and δL for the free base), pKas and abbreviations of indicators

[2] = Mayr nucleophilicity parameters N and sN (benzhydrylium methodology, Mayr-Patz equation); type: physicochemical; conditions: dichloromethane, 20 °C
Source text: (1) Mayr-Patz Equation: lgk20^∘C=sN(N+E)
The MPE is a linear‐free‐energy relationship that characterizes electrophiles by the electrophilicity parameter E and nucleophiles by the solvent‐dependent parameters N (nucleophilicity) and s N (sensitivity toward changes in the electrophile reactivity). By using the MPE (Equation (1)), the construction of comprehensive nucleophilicity and electrophilicity scales becomes possible, which facilitate the comparison of various classes of Lewis base organocatalysts.^[ [110], [111], [112], [113], [114], [115], [116], [117], [118], [119], [120] ^]
(§1) In order to systematically investigate the influence of the chalcogen atom on the nucleophilicity of DHPB‐derived IChUs (Ch = O, S, Se, and Te), we utilized Mayr's benzhydrylium methodology.^[ [107] ^]
Figure 4 illustrates the linear correlations of the second‐order rate constants (lg k 2) with the electrophilicities E of Ar2CH^+ (18), which makes it possible to determine the Mayr nucleophilicity parameters N (and s N) for the DHPB‐derived IChUs IU3, ITU3, ISeU3, and ITeU3. […]
Figure 4 Linear correlations of second‐order rate constants (lg k 2) for the reactions of IU3, ITU3, ISeU3, and ITeU3 with Ar2CH^+ 18 (in dichloromethane at 20 °C) with the electrophilicities E of 18. The slopes of the linear correlations equal the nucleophile‐dependent sensitivity parameter s N. Intercepts on the abscissa reflect the nucleophilicity parameter N (N = –E at lg k 2 = 0).

[3] = Kinetics of IChU reactions with reference electrophile (ind)2CH+ (stopped-flow photometry); type: physicochemical; conditions: E = −8.76, dichloromethane, 20 °C
Source text: as §1
(§2) In accordance with observations in previous studies on ITU reactivity,^[ [119] ^] mixing the strongly colored benzhydrylium tetrafluoroborates 18 with excess IChUs in dichloromethane gave rise to decolorization of the solutions due to the formation of isochalcogenouronium tetrafluoroborates 19, which are colourless (Figure 3a). Owing to reversibility of the C─N bond formation, generated adducts 19 from the IChU/benzhydrylium reactions were not isolated but characterized by ^1H, ^13C, and ^77Se NMR spectroscopy (the ^77Se nucleus is remarkably sensitive with observed changes of around 100 ppm when comparing the ^77Se resonances of free ISeUs with those of the corresponding selenouronium tetrafluoroborates^[ [95] ^]). The kinetics of the IChU reactions with the reference electrophiles 18 were traced by photometric methods using standard stopped‐flow techniques. To establish pseudo first‐order conditions and to secure a sufficient decay of the benzhydrylium's absorbance during the course of the reactions, the IChUs were employed at higher concentrations than the benzhydrylium ions. First‐order rate constants k obs (s^−1) were determined by fitting the mono‐exponential decay function in Equation (2) to the decreasing absorbance (A) of 18 during their reaction with the IChUs as exemplified for the reaction of ITeU3 with (ind)2CH^+ in Figure 3b. (2) A=A0e^−kobst+C […]
(§3) First‐order rate constants k obs correlated linearly with the IChU concentration. Therefore, second‐order rate constants k 2 (L mol^−1 s^−1) were determined from the slope of the linear regression curves (Figure 3c ^[ [95] ^]). Second‐order rate constants k 2 for all kinetically investigated reactions of DHPB‐derived IChUs (Ch = O, S, Se, and Te) with benzhydrylium ions 18 are gathered in Table 1.
(§4) Apart from CH2Cl2 also MeCN and THF are solvents that are commonly employed in reactions involving isochalcogenoureas. […]

[4] = Kinetics of IChU reactions with reference electrophile (pyr)2CH+ (stopped-flow photometry); type: physicochemical; conditions: E = −7.69, dichloromethane, 20 °C
Source text: as §1, §2, §3, §4

[5] = in methanolic aqueous solution (1:5-mixture); cited from earlier work
[6] = Kinetics of IChU reactions with reference electrophile (mpa)2CH+ (stopped-flow photometry); type: physicochemical; conditions: E = −5.89, dichloromethane, 20 °C
Source text: as §1
In accordance with observations in previous studies on ITU reactivity,^[ [119] ^] mixing the strongly colored benzhydrylium tetrafluoroborates 18 with excess IChUs in dichloromethane gave rise to decolorization of the solutions due to the formation of isochalcogenouronium tetrafluoroborates 19, which are colourless (Figure 3a). […] To establish pseudo first‐order conditions and to secure a sufficient decay of the benzhydrylium's absorbance during the course of the reactions, the IChUs were employed at higher concentrations than the benzhydrylium ions. First‐order rate constants k obs (s^−1) were determined by fitting the mono‐exponential decay function in Equation (2) to the decreasing absorbance (A) of 18 during their reaction with the IChUs as exemplified for the reaction of ITeU3 with (ind)2CH^+ in Figure 3b. […]
First‐order rate constants k obs correlated linearly with the IChU concentration. Therefore, second‐order rate constants k 2 (L mol^−1 s^−1) were determined from the slope of the linear regression curves (Figure 3c ^[ [95] ^]). […]

Row | SMILES | Brønsted basicity pKaH(DMSO) [1] | Brønsted basicity pKaH(MeCN) [1] | Nucleophile-specific sensitivity parameter sN [2] | Nucleophilicity parameter N [2] | Second-order rate constant k2 exptl [3] | Second-order rate constant k2 exptl [4] | Brønsted basicity pKaH(H2O) [5] | Second-order rate constant k2 exptl [6]
1 | c1ccc2c(c1)[Se]C1=NCCCN12 [ISeU3, SeDHPB] | 8.3 | 17.9 | 0.66 | 15.16 | 18100 M⁻¹ s⁻¹ | 107000 M⁻¹ s⁻¹ | >11 ^c) | 1.16e+06 M⁻¹ s⁻¹
2 | c1ccc2c(c1)OC1=NCCCN12 [IU3, ODHPB] | 6.5 | 16.9 | 0.69 | 13.31 | 1200 M⁻¹ s⁻¹ | 7930 M⁻¹ s⁻¹ | 8.8 ^c) | 129000 M⁻¹ s⁻¹
